# Reference: ChEMBL document CHEMBL3991601, “The target landscape of clinical kinase drugs” (Science, 2017)
# Activity calls are given as the source filed them.
# Assays:
# Activin receptor type-2B = Activin receptor type-2B (Homo sapiens, UniProt Q13705)
# [1] = biological target: Atypical kinase COQ8A, mitochondrial (Homo sapiens, UniProt Q8NI60)
# [2] = biological target: T1, Beta-adrenergic receptor kinase 1 (Homo sapiens, UniProt P25098)
# T1 sequence (P25098 whole entry): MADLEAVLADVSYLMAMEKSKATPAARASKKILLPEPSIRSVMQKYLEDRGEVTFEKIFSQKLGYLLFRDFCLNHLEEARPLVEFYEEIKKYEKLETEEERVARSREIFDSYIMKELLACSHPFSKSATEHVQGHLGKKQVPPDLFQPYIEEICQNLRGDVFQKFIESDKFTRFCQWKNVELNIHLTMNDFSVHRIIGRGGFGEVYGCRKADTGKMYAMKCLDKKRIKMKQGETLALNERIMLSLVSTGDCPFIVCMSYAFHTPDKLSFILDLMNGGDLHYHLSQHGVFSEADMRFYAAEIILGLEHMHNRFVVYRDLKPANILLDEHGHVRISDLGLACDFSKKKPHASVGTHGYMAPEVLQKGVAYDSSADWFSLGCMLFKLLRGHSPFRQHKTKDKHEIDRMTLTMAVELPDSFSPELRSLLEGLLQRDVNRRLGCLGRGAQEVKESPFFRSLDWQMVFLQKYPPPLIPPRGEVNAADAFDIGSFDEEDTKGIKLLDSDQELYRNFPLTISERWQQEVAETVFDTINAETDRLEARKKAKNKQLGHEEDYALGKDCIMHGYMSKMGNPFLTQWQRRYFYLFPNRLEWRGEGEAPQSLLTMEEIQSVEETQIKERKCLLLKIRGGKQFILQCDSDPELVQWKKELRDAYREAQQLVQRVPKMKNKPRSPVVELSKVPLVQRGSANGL
# [3] = biological target: Serine/threonine-protein kinase MRCK alpha (Homo sapiens, UniProt Q5VT25)
# Sequence of Serine/threonine-protein kinase MRCK alpha (Q5VT25 whole entry): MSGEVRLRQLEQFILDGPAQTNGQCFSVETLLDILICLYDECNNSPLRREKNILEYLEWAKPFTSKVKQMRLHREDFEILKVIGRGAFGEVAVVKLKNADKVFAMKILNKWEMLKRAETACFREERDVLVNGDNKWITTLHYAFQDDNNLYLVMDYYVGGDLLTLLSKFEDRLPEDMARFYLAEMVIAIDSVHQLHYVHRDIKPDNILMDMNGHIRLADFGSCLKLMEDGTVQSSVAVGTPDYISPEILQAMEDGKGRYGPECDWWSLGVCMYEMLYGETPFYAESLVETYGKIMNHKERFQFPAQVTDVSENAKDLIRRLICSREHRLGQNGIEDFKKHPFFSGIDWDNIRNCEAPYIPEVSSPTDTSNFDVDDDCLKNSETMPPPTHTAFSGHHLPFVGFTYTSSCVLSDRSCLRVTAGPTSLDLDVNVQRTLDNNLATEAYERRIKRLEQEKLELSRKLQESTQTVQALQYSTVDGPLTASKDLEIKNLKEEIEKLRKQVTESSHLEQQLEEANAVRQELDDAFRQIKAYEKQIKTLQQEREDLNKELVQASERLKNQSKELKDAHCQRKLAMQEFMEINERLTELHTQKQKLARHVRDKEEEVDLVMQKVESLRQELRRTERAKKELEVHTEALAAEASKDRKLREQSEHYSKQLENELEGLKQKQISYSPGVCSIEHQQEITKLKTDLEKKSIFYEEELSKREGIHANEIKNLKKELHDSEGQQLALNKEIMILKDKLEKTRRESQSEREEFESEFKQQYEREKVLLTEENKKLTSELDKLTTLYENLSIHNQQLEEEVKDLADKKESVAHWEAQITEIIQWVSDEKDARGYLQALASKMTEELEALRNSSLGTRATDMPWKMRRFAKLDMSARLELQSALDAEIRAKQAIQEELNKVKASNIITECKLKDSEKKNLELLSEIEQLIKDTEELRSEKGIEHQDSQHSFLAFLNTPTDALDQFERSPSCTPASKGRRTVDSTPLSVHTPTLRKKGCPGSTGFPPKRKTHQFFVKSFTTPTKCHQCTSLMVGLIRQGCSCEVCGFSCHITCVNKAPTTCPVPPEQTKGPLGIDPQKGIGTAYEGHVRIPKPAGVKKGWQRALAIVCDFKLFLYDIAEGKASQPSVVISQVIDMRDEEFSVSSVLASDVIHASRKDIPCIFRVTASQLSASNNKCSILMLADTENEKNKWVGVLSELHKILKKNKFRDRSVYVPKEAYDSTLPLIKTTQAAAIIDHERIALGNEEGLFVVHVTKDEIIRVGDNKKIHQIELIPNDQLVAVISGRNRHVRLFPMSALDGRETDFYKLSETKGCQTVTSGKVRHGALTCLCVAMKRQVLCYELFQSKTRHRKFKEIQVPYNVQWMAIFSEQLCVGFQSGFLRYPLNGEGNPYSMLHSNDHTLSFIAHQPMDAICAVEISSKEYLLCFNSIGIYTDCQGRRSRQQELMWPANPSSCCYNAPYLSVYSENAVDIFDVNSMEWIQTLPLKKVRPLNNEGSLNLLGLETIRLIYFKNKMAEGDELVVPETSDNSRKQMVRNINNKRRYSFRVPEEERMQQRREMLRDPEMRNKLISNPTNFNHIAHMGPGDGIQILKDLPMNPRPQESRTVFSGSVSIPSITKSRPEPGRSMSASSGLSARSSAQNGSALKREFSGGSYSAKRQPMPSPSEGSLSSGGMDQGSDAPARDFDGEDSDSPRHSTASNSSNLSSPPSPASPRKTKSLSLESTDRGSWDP
# [4] = biological target: Eukaryotic translation initiation factor 2-alpha kinase 1 (Homo sapiens, UniProt Q9BQI3)
# Sequence of Eukaryotic translation initiation factor 2-alpha kinase 1 (Q9BQI3 whole entry): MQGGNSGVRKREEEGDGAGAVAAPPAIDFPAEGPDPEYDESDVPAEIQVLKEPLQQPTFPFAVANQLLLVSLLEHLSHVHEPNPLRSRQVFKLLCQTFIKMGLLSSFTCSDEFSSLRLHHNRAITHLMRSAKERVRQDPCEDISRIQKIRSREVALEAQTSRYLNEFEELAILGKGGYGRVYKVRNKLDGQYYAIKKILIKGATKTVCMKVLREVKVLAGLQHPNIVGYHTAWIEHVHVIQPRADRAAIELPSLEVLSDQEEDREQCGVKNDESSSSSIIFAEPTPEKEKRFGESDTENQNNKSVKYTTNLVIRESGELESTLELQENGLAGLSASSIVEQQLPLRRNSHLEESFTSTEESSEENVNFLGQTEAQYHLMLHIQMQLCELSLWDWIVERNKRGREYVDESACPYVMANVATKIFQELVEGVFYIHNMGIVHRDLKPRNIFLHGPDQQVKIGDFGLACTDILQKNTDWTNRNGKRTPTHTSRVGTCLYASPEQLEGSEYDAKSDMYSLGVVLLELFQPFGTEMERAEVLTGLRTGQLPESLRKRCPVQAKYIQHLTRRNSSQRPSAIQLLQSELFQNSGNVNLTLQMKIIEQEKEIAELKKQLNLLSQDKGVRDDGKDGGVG
# Ephrin type-B receptor 3 = biological target: T2, Ephrin type-B receptor 3 (Homo sapiens, UniProt P54753)
# T2 sequence (P54753 whole entry): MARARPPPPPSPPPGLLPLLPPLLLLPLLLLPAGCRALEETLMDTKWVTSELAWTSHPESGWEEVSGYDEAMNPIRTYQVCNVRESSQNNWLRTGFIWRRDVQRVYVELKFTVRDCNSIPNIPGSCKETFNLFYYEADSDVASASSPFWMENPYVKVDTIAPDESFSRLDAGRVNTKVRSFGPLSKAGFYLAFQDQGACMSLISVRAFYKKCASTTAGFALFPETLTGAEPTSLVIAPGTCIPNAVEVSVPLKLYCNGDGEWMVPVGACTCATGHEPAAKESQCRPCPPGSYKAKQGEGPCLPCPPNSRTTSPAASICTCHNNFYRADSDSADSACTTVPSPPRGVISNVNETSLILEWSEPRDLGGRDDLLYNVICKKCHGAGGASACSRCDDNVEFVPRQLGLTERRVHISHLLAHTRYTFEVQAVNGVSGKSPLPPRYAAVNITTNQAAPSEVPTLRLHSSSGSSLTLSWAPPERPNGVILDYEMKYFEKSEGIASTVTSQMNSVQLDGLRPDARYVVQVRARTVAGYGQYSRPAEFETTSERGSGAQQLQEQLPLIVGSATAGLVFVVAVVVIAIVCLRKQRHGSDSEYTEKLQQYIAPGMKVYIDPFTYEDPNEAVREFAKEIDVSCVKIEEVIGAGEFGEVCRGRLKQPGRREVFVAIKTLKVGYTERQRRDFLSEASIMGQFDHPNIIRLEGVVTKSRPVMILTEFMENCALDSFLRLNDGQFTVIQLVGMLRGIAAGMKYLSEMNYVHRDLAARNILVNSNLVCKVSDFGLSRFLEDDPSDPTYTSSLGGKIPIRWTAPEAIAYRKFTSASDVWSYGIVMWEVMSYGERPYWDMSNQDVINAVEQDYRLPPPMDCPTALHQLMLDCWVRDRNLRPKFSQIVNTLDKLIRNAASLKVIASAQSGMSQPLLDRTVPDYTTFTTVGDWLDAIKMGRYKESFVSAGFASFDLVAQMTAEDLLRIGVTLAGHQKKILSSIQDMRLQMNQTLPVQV
# [5] = biological target: Tyrosine-protein kinase HCK (Homo sapiens, UniProt P08631)
# Sequence of Tyrosine-protein kinase HCK (P08631 whole entry): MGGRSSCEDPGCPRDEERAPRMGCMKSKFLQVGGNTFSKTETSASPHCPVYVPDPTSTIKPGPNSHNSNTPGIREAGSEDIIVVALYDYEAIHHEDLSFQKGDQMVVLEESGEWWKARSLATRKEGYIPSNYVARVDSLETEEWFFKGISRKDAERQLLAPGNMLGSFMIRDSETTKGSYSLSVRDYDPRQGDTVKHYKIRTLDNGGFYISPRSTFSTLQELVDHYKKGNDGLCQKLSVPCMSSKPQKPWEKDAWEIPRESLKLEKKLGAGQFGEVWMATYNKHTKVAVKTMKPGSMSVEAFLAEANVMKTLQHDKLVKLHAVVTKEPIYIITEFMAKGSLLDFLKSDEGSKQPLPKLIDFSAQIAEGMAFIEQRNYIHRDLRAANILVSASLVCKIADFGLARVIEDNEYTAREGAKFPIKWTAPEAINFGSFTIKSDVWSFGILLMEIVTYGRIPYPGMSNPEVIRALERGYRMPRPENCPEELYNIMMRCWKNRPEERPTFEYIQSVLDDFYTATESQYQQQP
# [6] = biological target: NADH dehydrogenase [ubiquinone] 1 alpha subcomplex subunit 13 (Homo sapiens, UniProt Q9P0J0)
# Sequence of NADH dehydrogenase [ubiquinone] 1 alpha subcomplex subunit 13 (Q9P0J0 whole entry, one chain of several): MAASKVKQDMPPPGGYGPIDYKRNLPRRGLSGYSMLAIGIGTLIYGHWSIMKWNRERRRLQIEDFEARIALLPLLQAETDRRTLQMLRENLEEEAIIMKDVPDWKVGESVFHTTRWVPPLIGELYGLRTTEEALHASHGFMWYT
# [7] = biological target: T3, Serine/threonine-protein kinase Nek9 (Homo sapiens, UniProt Q8TD19)
# T3 sequence (Q8TD19 whole entry): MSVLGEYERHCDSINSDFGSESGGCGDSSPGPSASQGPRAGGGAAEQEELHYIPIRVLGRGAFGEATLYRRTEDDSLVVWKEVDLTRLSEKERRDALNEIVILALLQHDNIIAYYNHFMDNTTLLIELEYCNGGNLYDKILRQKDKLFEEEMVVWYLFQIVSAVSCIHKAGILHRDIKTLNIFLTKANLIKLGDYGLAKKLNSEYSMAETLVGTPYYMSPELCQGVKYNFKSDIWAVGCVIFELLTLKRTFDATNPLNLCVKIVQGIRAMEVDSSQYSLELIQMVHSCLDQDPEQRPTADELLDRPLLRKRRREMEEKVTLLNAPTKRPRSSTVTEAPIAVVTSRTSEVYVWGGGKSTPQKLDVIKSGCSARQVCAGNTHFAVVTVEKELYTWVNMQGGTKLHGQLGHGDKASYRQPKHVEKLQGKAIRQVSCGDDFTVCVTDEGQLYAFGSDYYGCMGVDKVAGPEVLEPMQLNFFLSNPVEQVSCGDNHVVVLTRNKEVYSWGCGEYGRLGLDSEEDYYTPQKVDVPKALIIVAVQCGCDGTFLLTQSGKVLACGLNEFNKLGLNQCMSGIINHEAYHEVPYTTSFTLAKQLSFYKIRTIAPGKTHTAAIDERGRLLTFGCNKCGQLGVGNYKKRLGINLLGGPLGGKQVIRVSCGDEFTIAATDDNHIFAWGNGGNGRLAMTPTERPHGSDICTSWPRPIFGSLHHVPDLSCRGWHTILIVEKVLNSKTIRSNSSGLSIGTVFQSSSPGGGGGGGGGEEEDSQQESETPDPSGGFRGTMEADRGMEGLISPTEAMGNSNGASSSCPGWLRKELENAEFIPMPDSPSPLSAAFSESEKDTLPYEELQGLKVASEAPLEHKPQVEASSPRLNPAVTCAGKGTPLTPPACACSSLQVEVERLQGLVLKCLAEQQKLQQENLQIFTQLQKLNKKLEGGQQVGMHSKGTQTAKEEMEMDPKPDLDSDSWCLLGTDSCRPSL
# [8] = biological target: Ribosomal protein S6 kinase alpha-3 (Homo sapiens, UniProt P51812)
# Sequence of Ribosomal protein S6 kinase alpha-3 (P51812 whole entry): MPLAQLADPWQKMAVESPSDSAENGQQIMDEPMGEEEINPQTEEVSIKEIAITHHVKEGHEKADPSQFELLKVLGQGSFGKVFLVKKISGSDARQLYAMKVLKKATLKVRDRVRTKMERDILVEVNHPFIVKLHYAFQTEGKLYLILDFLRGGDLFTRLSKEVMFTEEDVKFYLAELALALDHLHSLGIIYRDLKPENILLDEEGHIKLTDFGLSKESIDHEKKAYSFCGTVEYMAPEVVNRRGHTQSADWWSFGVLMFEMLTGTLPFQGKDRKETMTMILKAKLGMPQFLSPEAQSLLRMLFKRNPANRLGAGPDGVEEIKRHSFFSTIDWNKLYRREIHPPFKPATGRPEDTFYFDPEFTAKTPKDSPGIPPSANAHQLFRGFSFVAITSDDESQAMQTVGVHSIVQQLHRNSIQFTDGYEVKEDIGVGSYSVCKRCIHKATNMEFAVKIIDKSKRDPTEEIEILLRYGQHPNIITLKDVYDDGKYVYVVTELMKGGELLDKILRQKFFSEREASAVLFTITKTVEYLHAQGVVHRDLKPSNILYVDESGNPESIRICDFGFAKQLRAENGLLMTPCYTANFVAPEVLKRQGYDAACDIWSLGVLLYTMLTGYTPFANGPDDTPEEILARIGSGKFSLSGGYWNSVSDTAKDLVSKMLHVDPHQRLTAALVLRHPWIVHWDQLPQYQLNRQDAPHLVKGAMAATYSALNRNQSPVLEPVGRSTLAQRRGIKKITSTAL
# Note: in the data inactive means no Kd found up to 30 µM.
# Sequence of Atypical kinase COQ8A, mitochondrial (Q8NI60 whole entry): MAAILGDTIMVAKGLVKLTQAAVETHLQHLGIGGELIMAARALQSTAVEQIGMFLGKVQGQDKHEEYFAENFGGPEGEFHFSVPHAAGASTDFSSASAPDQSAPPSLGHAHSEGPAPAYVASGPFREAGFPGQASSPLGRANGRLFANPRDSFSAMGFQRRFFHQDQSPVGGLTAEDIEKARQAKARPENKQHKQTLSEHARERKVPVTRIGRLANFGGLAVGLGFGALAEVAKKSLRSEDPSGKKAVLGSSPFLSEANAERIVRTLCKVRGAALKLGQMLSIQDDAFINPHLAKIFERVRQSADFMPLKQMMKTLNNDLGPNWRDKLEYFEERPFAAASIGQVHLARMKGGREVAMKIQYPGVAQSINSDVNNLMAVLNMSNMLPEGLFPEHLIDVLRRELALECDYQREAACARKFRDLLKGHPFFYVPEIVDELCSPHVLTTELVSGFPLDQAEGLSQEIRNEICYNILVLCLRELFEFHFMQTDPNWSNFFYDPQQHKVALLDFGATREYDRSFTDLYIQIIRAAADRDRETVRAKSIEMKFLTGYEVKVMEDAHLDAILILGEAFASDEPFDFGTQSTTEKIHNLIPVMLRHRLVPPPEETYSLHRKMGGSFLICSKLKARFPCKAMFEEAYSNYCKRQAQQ
# Sequence of Activin receptor type-2B (Q13705 whole entry): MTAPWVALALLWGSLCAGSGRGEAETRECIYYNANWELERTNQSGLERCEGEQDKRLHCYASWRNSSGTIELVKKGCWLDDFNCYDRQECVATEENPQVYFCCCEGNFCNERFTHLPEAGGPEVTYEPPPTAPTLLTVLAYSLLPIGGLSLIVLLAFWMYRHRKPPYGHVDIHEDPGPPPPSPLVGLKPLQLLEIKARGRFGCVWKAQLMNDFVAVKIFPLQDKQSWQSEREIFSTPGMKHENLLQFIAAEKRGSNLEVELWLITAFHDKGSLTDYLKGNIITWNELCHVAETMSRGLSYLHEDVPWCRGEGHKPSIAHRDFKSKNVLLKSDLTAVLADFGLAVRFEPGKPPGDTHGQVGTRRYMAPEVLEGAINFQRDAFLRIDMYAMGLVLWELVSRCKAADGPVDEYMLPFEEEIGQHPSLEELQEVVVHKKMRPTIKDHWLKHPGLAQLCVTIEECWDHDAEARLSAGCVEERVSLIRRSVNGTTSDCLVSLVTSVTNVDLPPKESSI
Kd (Activin receptor type-2B),Kd [1],Kd [2],Kd [3],Kd [4],Kd (Ephrin type-B receptor 3),Kd [5],Kd [6],Kd [8],SMILES,Kd [7]
> 30 µM (inactive),> 30 µM (inactive),> 30 µM (inactive),> 30 µM (inactive),> 30 µM (inactive),> 30 µM (inactive),> 30 µM (inactive),> 30 µM (inactive),> 30 µM (inactive),CCN1CCN(Cc2ccc(-c3cc4c(N[C@H](C)c5ccccc5)ncnc4[nH]3)cc2)CC1 [AEE-788],> 30 µM (inactive)
> 30 µM (inactive),> 30 µM (inactive),> 30 µM (inactive),> 30 µM (inactive),> 30 µM (inactive),> 30 µM (inactive),> 30 µM (inactive),> 30 µM (inactive),> 30 µM (inactive),O=C(O)[C@]1(Cc2cccc(Nc3nccs3)n2)CC[C@@H](Oc2cccc(Cl)c2F)CC1 [MK-5108],> 30 µM (inactive)
> 30 µM (inactive),> 30 µM (inactive),> 30 µM (inactive),> 30 µM (inactive),> 30 µM (inactive),> 30 µM (inactive),> 30 µM (inactive),> 30 µM (inactive),> 30 µM (inactive),C[C@@H](Nc1cc(F)cc(F)c1)c1cc(C(=O)N(C)C)cc2c(=O)cc(N3CCOCC3)oc12 [AZD-8186],> 30 µM (inactive)
> 30 µM (inactive),> 30 µM (inactive),> 30 µM (inactive),> 30 µM (inactive),> 30 µM (inactive),> 30 µM (inactive),> 30 µM (inactive),> 30 µM (inactive),> 30 µM (inactive),Cn1cc(-c2ccc3nnc(C(F)(F)c4ccc5ncccc5c4)n3n2)cn1 [JNJ-38877605],> 30 µM (inactive)

# Further lines, the compound ahead of its results:
SMILES,Kd (Activin receptor type-2B),Kd [1],Kd [2],Kd [3],Kd [4],Kd (Ephrin type-B receptor 3),Kd [5],Kd [6],Kd [8],Kd [7]
COC(=O)N[C@@H](C)CNc1nccc(-c2cn(C(C)C)nc2-c2cc(Cl)cc(NS(C)(=O)=O)c2F)n1 [ENCORAFENIB],> 30 µM (inactive),> 30 µM (inactive),> 30 µM (inactive),> 30 µM (inactive),> 30 µM (inactive),> 30 µM (inactive),> 30 µM (inactive),> 30 µM (inactive),> 30 µM (inactive),> 30 µM (inactive)
Cc1cc(-c2cc(O)ccc2Cl)cc2nnc(Nc3ccc(OCCN4CCCC4)cc3)nc12,> 30 µM (inactive),> 30 µM (inactive),> 30 µM (inactive),> 30 µM (inactive),> 30 µM (inactive),0.002 µM (active),> 30 µM (inactive),> 30 µM (inactive),> 30 µM (inactive),> 30 µM (inactive)
CCCS(=O)(=O)Nc1ccc(F)c(C(=O)c2c[nH]c3ncc(-c4ccc(Cl)cc4)cc23)c1F [VEMURAFENIB],> 30 µM (inactive),> 30 µM (inactive),> 30 µM (inactive),> 30 µM (inactive),> 30 µM (inactive),> 30 µM (inactive),> 30 µM (inactive),> 30 µM (inactive),> 30 µM (inactive),> 30 µM (inactive)
CC[C@H](Nc1ncnc2[nH]cnc12)c1nc2cccc(F)c2c(=O)n1-c1ccccc1 [IDELALISIB],> 30 µM (inactive),> 30 µM (inactive),> 30 µM (inactive),> 30 µM (inactive),> 30 µM (inactive),> 30 µM (inactive),> 30 µM (inactive),> 30 µM (inactive),> 30 µM (inactive),> 30 µM (inactive)
CC(=O)Nc1cccc(-n2c(=O)n(C3CC3)c(=O)c3c(Nc4ccc(I)cc4F)n(C)c(=O)c(C)c32)c1 [TRAMETINIB],> 30 µM (inactive),> 30 µM (inactive),> 30 µM (inactive),> 30 µM (inactive),> 30 µM (inactive),> 30 µM (inactive),> 30 µM (inactive),> 30 µM (inactive),> 30 µM (inactive),> 30 µM (inactive)
CO[C@H]1C[C@@H]2CC[C@@H](C)[C@@](O)(O2)C(=O)C(=O)N2CCCC[C@H]2C(=O)O[C@H]([C@H](C)C[C@@H]2CC[C@@H](OCCO)[C@H](OC)C2)CC(=O)[C@H](C)/C=C(\C)[C@@H](O)[C@@H](OC)C(=O)[C@H](C)C[C@H](C)/C=C/C=C/C=C/1C [EVEROLIMUS],> 30 µM (inactive),> 30 µM (inactive),> 30 µM (inactive),> 30 µM (inactive),> 30 µM (inactive),> 30 µM (inactive),> 30 µM (inactive),> 30 µM (inactive),> 30 µM (inactive),> 30 µM (inactive)
O=c1sn(-c2cccc3ccccc23)c(=O)n1Cc1ccccc1 [TIDEGLUSIB],> 30 µM (inactive),> 30 µM (inactive),> 30 µM (inactive),> 30 µM (inactive),> 30 µM (inactive),> 30 µM (inactive),> 30 µM (inactive),> 30 µM (inactive),> 30 µM (inactive),> 30 µM (inactive)
CC(C)Nc1cc(-c2c[nH]c(C(=O)N[C@H](CO)c3cccc(Cl)c3)c2)c(Cl)cn1 [ULIXERTINIB],> 30 µM (inactive),> 30 µM (inactive),> 30 µM (inactive),> 30 µM (inactive),> 30 µM (inactive),> 30 µM (inactive),> 30 µM (inactive),> 30 µM (inactive),> 30 µM (inactive),> 30 µM (inactive)
CN1CC[C@@H](c2c(O)cc(O)c3c(=O)cc(-c4ccccc4Cl)oc23)[C@@H]1CO,> 30 µM (inactive),> 30 µM (inactive),> 30 µM (inactive),> 30 µM (inactive),> 30 µM (inactive),> 30 µM (inactive),> 30 µM (inactive),> 30 µM (inactive),> 30 µM (inactive),> 30 µM (inactive)
